Measured values: patent US20120004228A1, “Bis Aromatic Compounds for Use as LTC4 Synthase Inhibitors” (BIOLIPOX AB, priority 2009, published 2012)

Biological target: T1, Recombinant human LTC4 synthase (Homo sapiens, UniProt Q16873)
T1 construct: made in house; host or cells: Pichia pastoris ('Piccia pastoralis' [sic])
T1 sequence (Q16873 1-150): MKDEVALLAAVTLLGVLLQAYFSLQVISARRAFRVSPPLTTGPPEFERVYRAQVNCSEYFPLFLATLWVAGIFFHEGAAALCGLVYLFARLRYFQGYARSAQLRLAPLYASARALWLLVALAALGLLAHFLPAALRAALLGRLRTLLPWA
Assay: In vitro LTC4 synthase assay (LTA4 to LTC4, HTRF detection)
Type: biochemical
Settings: for inhibition at 10 µM: 5 min, total concentration of title compound in the assay 10 μM

IC50 [nM]	inhibition at 10 µM [%]	SMILES
59	–	CN(c1ccc(Cl)cc1)c1ccc(C(=O)c2cc(Oc3cccc(F)c3)cc(C(=O)O)c2)cc1 [8:13, 3-{4-[(4-Chlorophenyl)(methyl)amino]benzoyl}-5-(3-fluorophenoxy)benzoic acid]
25	–	CN(c1ccc(Cl)cc1)c1ccc(C(=O)c2cc(C(=O)O)cc(N(CCCCO)c3ccccc3)c2)nc1 [9:45, 3-{5-[(4-Chlorophenyl)(methyl)amino]picolinoyl}-5-[(4-hydroxybutyl)(phenyl)-amino]benzoic acid]
147	–	CN(c1ccc(Cl)cc1)c1ccc(C(=O)c2cc(C(=O)O)cc(N(CC3CCC3)c3ccccc3)c2)cc1 [10:30, 3-{4-[(4-Chlorophenyl)(methyl)amino]benzoyl}-5-[(cyclobutylmethyl)(phenyl)-amino]benzoic acid]
160	–	CN(c1ccc(Cl)cc1)c1ccc(C(=O)c2cc(Nc3ccccc3Cl)cc(C(=O)O)c2)nc1 [9:5, 3-{5-[(4-Chlorophenyl)(methyl)amino]picolinoyl}-5-(2-chlorophenylamino)-benzoic acid]
146	99	O=C(O)c1cc(Nc2ccc(Cl)cc2)cc(C(=O)c2ccc(Nc3ccc(Cl)cc3)cc2)c1 [Example 3, 3-(4-Chorophenylamino)-5-[4-(4-chlorophenylamino)benzoyl]benzoic acid]
188	–	COc1cccc(Oc2cc(C(=O)O)cc(C(=O)c3ccc(N(C)c4ccc(Cl)cc4)cn3)c2)c1 [8:3, 3-{5-[(4-Chlorophenyl)(methyl)amino]picolinoyl}-5-(3-methoxyphenoxy)benzoic acid]
123	–	COc1ccc(CN(C)c2cc(C(=O)O)cc(C(=O)c3ccc(N(C)c4ccc(Cl)cc4)cn3)c2)cc1 [9:9, 3-{5-[(4-Chlorophenyl)(methyl)amino]picolinoyl}-5-[(4-methoxybenzyl)(methyl)-amino]benzoic acid]
183	–	CC(C)OCC(O)CN(c1ccccc1)c1cc(C(=O)O)cc(C(=O)c2ccc(N(C)c3ccc(Cl)cc3)cc2)c1 (stereo not drawn) [Example 10:38, 3-{4-[(4-Chlorophenyl)(methyl)amino]benzoyl}-5-[(2-hydroxy-3-isopropoxy-propyl)(phenyl)amino]benzoic acid]
176	–	CC(C)CN(c1ccccc1)c1cc(C(=O)O)cc(C(=O)c2ccc(N(C)c3ccc(Cl)cc3)cc2)c1 [10:35, 3-{4-[(4-Chlorophenyl)(methyl)amino]benzoyl}-5-[isobutyl(phenyl)amino]-benzoic acid]
932	–	COc1ccccc1N(C(C)=O)c1cc(C(=O)O)cc(C(=O)c2ccc(N(C)c3ccc(Cl)cc3)cn2)c1 [9:24, 3-{5-[(4-Chlorophenyl)(methyl)amino]picolinoyl}-5-[N-(2-methoxyphenyl)-acetamido]benzoic acid]
424	–	CN(c1ccc(Cl)cc1)c1ccc(C(=O)c2cc(C(=O)O)cc(C(=O)Nc3ccc4c(c3)OC(F)(F)O4)c2)cc1 [2:12, 3-{4-[(4-Chlorophenyl)(methyl)amino]benzoyl}-5-[3,4-(difluoromethylene-dioxy)phenylcarbamoyl]benzoic acid]
30	–	O=C(O)c1cc(Nc2ccccc2)cc(C(=O)c2ccc(N(CC3CC3)c3ccc(Cl)cc3)cn2)c1 [9:20, 3-{5-[(4-Chlorophenyl)(cyclopropylmethyl)amino]picolinoyl}-5-(phenylamino)-benzoic acid]
77	–	CN(c1ccc(Cl)cc1)c1ccc(C(=O)c2cc(Oc3ccccc3Cl)cc(C(=O)O)c2)nc1 [8:8, 3-(2-Chlorophenoxy)-{5-[(4-chlorophenyl)(methyl)amino]picolinoyl}benzoic acid]
40	–	CN(c1ccc(Cl)cc1)c1ccc(C(=O)c2cc(C(=O)O)cc(N(C)c3ccccc3)c2)cc1 [Example 10:23, 5-{4-[(4-Chlorophenyl)(methyl)amino]benzoyl}-3-[methyl(phenyl)amino]benzoic acid]
137	–	COc1ccc(N(C)c2cc(C(=O)O)cc(C(=O)c3ccc(N(C)c4ccc(Cl)cc4)cn3)c2)cc1 [9:28, 3-{5-[(4-Chlorophenyl)(methyl)amino]picolinoyl}-5-[(4-methoxyphenyl)(methyl)-amino]benzoic acid]
74	–	COCCN(c1ccccc1)c1cc(C(=O)O)cc(C(=O)c2ccc(N(C)c3ccc(Cl)cc3)cc2)c1 [10:26, 3-{4-[(4-Chlorophenyl)(methyl)amino]benzoyl}-5-[(2-methoxyethyl)(phenyl)-amino]benzoic acid]
210	–	CN(c1ccc(Cl)cc1)c1ccc(C(=O)c2cc(Nc3cc(F)ccc3F)cc(C(=O)O)c2)cc1 [10:5, 3-{4-[(4-Chlorophenyl)(methyl)amino]benzoyl}-5-(2,5-difluorophenylamino)-benzoic acid]
449	–	CN(c1ccc(Cl)cc1)c1ccc(C(=O)c2cc(C(=O)O)cc(C(=O)Nc3ccccc3)c2)nc1 [Example 2:1, 3-{5-[(4-Chlorophenyl)(methyl)aminol]picolinoyl}-5-(phenylcarbamoyl)benzoic acid]
80	–	CN(c1ccc(Cl)cc1)c1ccc(C(=O)c2cc(Oc3ccccc3Cl)cc(C(=O)O)c2)cc1 [8:19, 3-(2-Chlorophenoxy)-5-{4-[(4-chlorophenyl)(methyl)amino]benzoyl}benzoic acid]

IC50 [nM]	inhibition at 10 µM [%]	SMILES
625	96	O=C(O)c1cc(Nc2ccc(Cl)cc2)ccc1C(=O)c1ccc(Nc2ccc(Cl)cc2)cc1 [Example 6:1, 5-(4-Chlorophenylamino)-2-[4-(4-chlorophenylamino)benzoyl]benzoic acid]
525	–	COc1ccccc1Oc1cc(C(=O)O)cc(C(=O)c2ccc(N(C)c3ccc(Cl)cc3)cn2)c1 [8:4, 3-{5-[(4-Chlorophenyl)(methyl)amino]picolinoyl}-5-(2-methoxyphenoxy)benzoic acid]
506	–	CN(c1ccc(Cl)cc1)c1ccc(C(=O)c2cc(C(=O)O)cc(N3CCCCC3)c2)nc1 [9:37, 3-{5-[(4-Chlorophenyl)(methyl)amino]picolinoyl}-5-(1-piperidinyl)benzoic acid]
143	–	COc1cccc(Oc2cc(C(=O)O)cc(C(=O)c3ccc(N(C)c4ccc(Cl)cc4)cc3)c2)c1 [8:14, 3-{4-[(4-Chlorophenyl)(methyl)amino]benzoyl}-5-(3-methoxyphenoxy)benzoic acid]
70	–	CN(c1ccc(Cl)cc1)c1ccc(C(=O)c2cc(Nc3ccc(Cl)cc3)cc(C(=O)O)c2)nc1 [9:4, 3-{5-[(4-Chlorophenyl)(methyl)amino]picolinoyl}-5-(4-chlorophenylamino)-benzoic acid]
41	–	CN(c1ccc(Cl)cc1)c1ccc(C(=O)c2cc(Oc3ccc(F)c(F)c3)cc(C(=O)O)c2)nc1 [8:2, 3-{5-[(4-Chlorophenyl)(methyl)amino]picolinoyl}-5-(3,4-difluorophenoxy)-benzoic acid]
1550	–	CN(c1ccc(Cl)cc1)c1ccc(C(=O)c2cc(C(=O)O)cc(N(C)c3cccnc3)c2)nc1 [9:42, 3-{5-[(4-Chlorophenyl)(methyl)amino]picolinoyl}-5-[methyl(3-pyridyl)amino]-benzoic acid]
445	–	CN(c1ccc(Cl)cc1)c1ccc(C(=O)c2cc(C(=O)O)cc(-c3ccc(Cl)cc3)c2)nc1 [12:2, 4′-Chloro-5-{5-[(4-chlorophenyl)(methyl)amino]picolinoyl}biphenyl-3-carboxylic acid]
76	–	CN(c1ccc(Cl)cc1)c1ccc(C(=O)c2cc(Oc3ccc(Cl)cc3)cc(C(=O)O)c2)nc1 [8:5, 3-(4-Chlorophenoxy)-5-{5-[(4-chlorophenyl)(methyl)amino]picolinoyl}benzoic acid]
360	–	COc1ccccc1Nc1cc(C(=O)O)cc(C(=O)c2ccc(N(C)c3ccc(Cl)cc3)cc2)c1 [10:15, 3-{4-[(4-Chlorophenyl)(methyl)amino]benzoyl}-5-(2-methoxyphenylamino)-benzoic acid]
120	–	Cc1ccc(Oc2cc(C(=O)O)cc(C(=O)c3ccc(N(C)c4ccc(Cl)cc4)cn3)c2)cc1 [8:6, 3-{5-[(4-Chlorophenyl)(methyl)amino]picolinoyl}-5-(p-tolyloxy)benzoic acid]
159	–	CN(c1ccc(Cl)cc1)c1ccc(C(=O)c2cc(Oc3ccc(C(C)(C)C)cc3)cc(C(=O)O)c2)cc1 [8:16, 3-(4-tert-Butylphenoxy)-5-{4-[(4-chlorophenyl)(methyl)amino]benzoyl}benzoic acid]
211	–	CN(c1ccc(Cl)cc1)c1ccc(C(=O)c2cc(Sc3ccccc3)cc(C(=O)O)c2)nc1 [19:4, 3-{5-[(4-Chlorophenyl)(methyl)amino]picolinoyl}-5-phenylsulfanylbenzoic acid]
584	–	CN(c1ccc(Cl)cc1)c1ccc(C(=O)c2cc(OCc3ccc4c(c3)OCO4)cc(C(=O)O)c2)nc1 [11:5, 3-{5-[(4-Chlorophenyl)(methyl)amino]picolinoyl}-5-(3,4-methylenedioxy-benzyloxy)benzoic acid]
147	–	CN(c1ccc(Cl)cc1)c1ccc(C(=O)c2cc(C(=O)O)cc(N(C)c3cccc(Cl)c3)c2)nc1 [Example 9:1, 3-[(3-Chlorophenyl)(methyl)amino]-5-{5-[(4-chlorophenyl)(methyl)amino]-picolinoyl}benzoic acid]
525	–	COc1cccc(Nc2cc(C(=O)O)cc(C(=O)c3ccc(N(C)c4ccc(Cl)cc4)cn3)c2)c1 [9:31, 3-{5-[(4-Chlorophenyl)(methyl)amino]picolinoyl}-5-(3-methoxyphenylamino)-benzoic acid]
80	–	CN(c1ccc(Cl)cc1)c1ccc(C(=O)c2cc(Nc3ccccc3)cc(C(=O)O)c2)cc1 [10:8, 3-{4-[(4-Chlorophenyl)(methyl)amino]benzoyl}-5-phenylamino-benzoic acid]
40	–	CC(=O)N(c1ccccc1)c1cc(C(=O)O)cc(C(=O)c2ccc(N(CC3CC3)c3ccc(Cl)cc3)cn2)c1 [9:19, 3-{5-[(4-Chlorophenyl)(cyclopropylmethyl)amino]picolinoyl}-5-(N-phenylacet-amido)benzoic acid]
